Reference: patent US7160893B2, “Pyrimidine-2,4-dione derivatives as matrix metalloproteinase inhibitors” (Warner-Lambert Company, priority 2002, dated 2007)
Where two headings read alike, the source gives them in different places.

Target: MMP-13 catalytic domain (Homo sapiens, UniProt P45452)
Assay: Inhibition of MMP-13 catalytic domain (thiopeptolide substrate hydrolysis assay)
Assay type: biochemical
Text: The assays measure the amount by which a test compound reduces the hydrolysis of a thiopeptolide substrate catalyzed by a matrix metalloproteinase enzyme. Such assays are described in detail by Ye et al., in Biochemistry, 1992;31(45):11231–11235, which is incorporated herein by reference. One such assay is described below in Biological Method 1.
Thiopeptolide substrates show virtually no decomposition or hydrolysis at or below neutral pH in the absence of a matrix metalloproteinase enzyme. A typical thiopeptolide substrate commonly utilized for assays is Ac-Pro-Leu-Gly-thioester-Leu-Leu-Gly-OEt. A 100 μL assay mixture will contain 50 mM of N-2-hydroxyethylpiperazine-N′-2-ethanesulfonic acid buffer (“HEPES,” pH 7.0), 10 mM CaCl2, 100 μM thiopeptolide substrate, and 1 mM 5,5′-dithio-bis-(2-nitro-benzoic acid) (DTNB). The thiopeptolide substrate concentration may be varied, for example from 10 to 800 μM to obtain Km and Kcat values. The change in absorbance at 405 nm is monitored on a Thermo Max microplate reader (molecular Devices, Menlo Park, Calif.) at room temperature (22° C.). The calculation of the amount of hydrolysis of the thiopeptolide substrate is based on E412=13600 M^−1 cm^−1 for the DTNB-derived product 3-carboxy-4-nitrothiophenoxide. Assays are carried out with and without matrix metalloproteinase inhibitor compounds, and the amount of hydrolysis is compared for a determination of inhibitory activity of the test compounds.
Test compounds were evaluated at various concentrations in order to determine their respective IC50 values, the micromolar concentration of compound required to cause a 50% inhibition of catalytic activity of the respective enzyme.
Some representative compounds of Formula I have been evaluated for their ability to inhibit MMP-13. Inhibitor activity versus other MMPs with the compounds may be determined using, for example, MMP-1FL, which refers to full length interstitial collagenase; MMP-2FL, which refers to full length Gelatinase A; MMP-3CD, which refers to the catalytic domain of stromelysin; MMP-7FL, which refers to full length matrilysin; MMP-9FL, which refers to full length Gelatinase B; MMP-13CD, which refers to the catalytic domain of collagenase 3; and MMP-14CD, which refers to the catalytic domain of MMP-14. Test compounds can be evaluated at various concentrations in order to determine their respective IC50 values, the micromolar concentration of compound required to cause a 50% inhibition of the hydrolytic activity of the respective enzyme.

[1] = compounds of Example 33, Biological Table 1, read-out: MMP-13CD IC50
[2] = values in text, given as about, read-out: IC50 with MMP-13 catalytic domain

IC50 [1] [µM]	IC50 [2] [µM]	Compound
> 100		Cc1c(SCc2ccc3ccccc3c2)n(C)c(=O)n(Cc2ccccc2)c1=O [Example 33e, 3-Benzyl-1,5-dimethyl-6-(naphthalen-2-ylmethylsulfanyl)-1H-pyrimidine-2,4-dione]
> 30		Cc1c(SCC(=O)c2cc(-c3ccc(Cl)cc3Cl)no2)[nH]c(=O)n(Cc2ccccc2)c1=O [Example 33t, 3-Benzyl-6-{2-[3-(2,4-dichloro-phenyl)-isoxazol-5-yl]-2-oxo-ethylsulfanyl}-5-methyl-1H-pyrimidine-2,4-dione]
23		Cc1onc(-c2ccccc2)c1C(=O)CSc1[nH]c(=O)n(Cc2ccccc2)c(=O)c1C [Example 33j, 3-Benzyl-5-methyl-6-[2-(5-methyl-3-phenyl-isoxazol-4-yl)-2-oxo-ethylsulfanyl]-1H-pyrimidine-2,4-dione]
> 100		Cc1c(SCCOc2ccc(F)cc2)n(C)c(=O)n(Cc2ccccc2)c1=O [Example 33a, 3-Benzyl-6-[2-(4-fluoro-phenoxy)-ethylsulfanyl]-1,5-dimethyl-1H-pyrimidine-2,4-dione]
> 100		Cc1c(SCCCC(=O)c2ccc(Br)cc2)[nH]c(=O)n(Cc2ccccc2)c1=O [Example 33r, 3-Benzyl-6-[4-(4-bromo-phenyl)-4-oxo-butylsulfanyl]-5-methyl-1H-pyrimidine-2,4-dione]
> 30		Cc1c(SCCC(=O)c2ccc(F)cc2)[nH]c(=O)n(Cc2ccccc2)c1=O [Example 33n, 3-Benzyl-6-[3-(4-fluoro-phenyl)-3-oxo-propylsulfanyl]-5-methyl-1H-pyrimidine-2,4-dione]
	~1.2	Cc1c(SCc2cc(-c3ccc(Cl)cc3)no2)[nH]c(=O)n(Cc2ccccc2)c1=O [Example 20, 3-Benzyl-6-[3-(4-chloro-phenyl)-isoxazol-5-ylmethylsulfanyl]-5-methyl-1H-pyrimidine-2,4-dione]
> 100		COc1ccc(C(=O)CSc2c(C)c(=O)n(Cc3ccccc3)c(=O)n2C)cc1 [Example 33h, 3-Benzyl-6-[2-(4-methoxy-phenyl)-2-oxo-ethylsulfanyl]-1,5-dimethyl-1H-pyrimidine-2,4-dione]
> 30		Cc1c(SCC(=O)c2ccc(-c3ccccc3)cc2)[nH]c(=O)n(Cc2ccccc2)c1=O [Example 33p, 3-Benzyl-6-(2-biphenyl-4-yl-2-oxo-ethylsulfanyl)-5-methyl-1H-pyrimidine-2,4-dione]
> 100		Cc1c(SCc2ccccc2-c2ccccc2)[nH]c(=O)n(Cc2ccccc2)c1=O [Example 33u, 3-Benzyl-6-(biphenyl-2-ylmethylsulfanyl)-5-methyl-1 H-pyrimidine-2,4-dione]
> 100		Cc1c(SCc2ccccc2-c2ccccc2)n(C)c(=O)n(Cc2ccccc2)c1=O [Example 33g, 3-Benzyl-6-(biphenyl-2-ylmethylsulfanyl)-1,5-dimethyl-1 H-pyrimidine-2,4-dione]
> 100		Cc1c(SCCCc2ccccc2)[nH]c(=O)n(Cc2ccccc2)c1=O [Example 33m, 3-Benzyl-5-methyl-6-(3-phenyl-propylsulfanyl)-1H-pyrimidine-2,4-dione]
> 30		COc1ccc2nc(CSc3[nH]c(=O)n(Cc4ccccc4)c(=O)c3C)c(=O)oc2c1 [Example 33k, 3-Benzyl-6-(7-methoxy-2-oxo-2H-1,4-benzoxazin-3-ylmethylsulfanyl)-5-methyl-1H-pyrimidine-2,4-dione]
> 100		Cc1c(SCCCCOc2ccccc2)[nH]c(=O)n(Cc2ccccc2)c1=O [Example 33s, 3-Benzyl-5-methyl-6-(4-phenoxy-butylsulfanyl)-1H-pyrimidine-2,4-dione]
> 100		Cc1c(SCc2ccc3nc(C(F)(F)F)cc(Cl)c3c2)[nH]c(=O)n(Cc2ccccc2)c1=O [Example 33i, 3-Benzyl-6-(4-chloro-2-trifluoromethyl-quinolin-6-ylmethylsulfanyl)-5-methyl-1H-pyrimidine-2,4-dione]
> 100		Cc1c(SCC(=O)c2ccc(-c3ccccc3)cc2)n(C)c(=O)n(Cc2ccccc2)c1=O [Example 33f, 3-Benzyl-6-(2-biphenyl-4-yl-2-oxo-ethylsulfanyl)-1,5-dimethyl-1H-pyrimidine-2,4-dione]
> 100		Cc1c(SCc2ccc3ccccc3c2)[nH]c(=O)n(Cc2ccccc2)c1=O [Example 33o, 3-Benzyl-5-methyl-6-(naphthalen-2-ylmethylsulfanyl)-1H-pyrimidine-2,4-dione]
	~2.1	Cc1c(SCc2cc(-c3ccc(Cl)cc3)on2)[nH]c(=O)n(Cc2ccccc2)c1=O [Example 6, 3-Benzyl-6-[5-(4-chloro-phenyl)-isoxazol-3-ylmethylsulfanyl]-5-methyl-1H-pyrimidine-2,4-dione]
> 100		Cc1c(SCCCc2ccccc2)n(C)c(=O)n(Cc2ccccc2)c1=O [Example 33c, 3-Benzyl-1,5-dimethyl-6-(3-phenyl-propylsulfanyl)-1H-pyrimidine-2,4-dione]
	~0.44	COc1ccc(-c2cc(CSc3[nH]c(=O)n(Cc4ccccc4)c(=O)c3C)on2)cc1 [Example 7, 3-Benzyl-6-[3-(4-methoxy-phenyl)-isoxazol-5-ylmethylsulfanyl]-5-methyl-1H-pyrimidine-2,4-dione]
> 100		Cc1c(SCCC(=O)c2ccc(F)cc2)n(C)c(=O)n(Cc2ccccc2)c1=O [Example 33d, 3-Benzyl-6-[3-(4-fluoro-phenyl)-3-oxo-propylsulfanyl]-1,5-dimethyl-1H-pyrimidine-2,4-dione]
> 30		Cc1c(SCC(=O)c2cc(-c3ccccc3)no2)[nH]c(=O)n(Cc2ccccc2)c1=O [Example 33l, 3-Benzyl-5-methyl-6-[2-oxo-2-(3-phenyl-isoxazol-5-yl)-ethylsulfanyl]-1H-pyrimidine-2,4-dione]
> 100		Cc1c(SCc2nc3ccccc3[nH]2)[nH]c(=O)n(Cc2ccccc2)c1=O [Example 33q, 6-(1H-Benzimidazol-2-ylmethylsulfanyl)-3-benzyl-5-methyl-1H-pyrimidine-2,4-dione]
> 100		Cc1c(SCc2ccc3nc(C(F)(F)F)cc(Cl)c3c2)n(C)c(=O)n(Cc2ccccc2)c1=O [Example 33b, 3-Benzyl-6-(4-chloro-2-trifluoromethyl-quinolin-6-ylmethylsulfanyl)-1,5-dimethyl-1H-pyrimidine-2,4-dione]
18		COc1ccc(C(=O)CSc2[nH]c(=O)n(Cc3ccccc3)c(=O)c2C)cc1 [Example 33v, 3-Benzyl-6-[2-(4-methoxy-phenyl)-2-oxo-ethylsulfanyl]-5-methyl-1H-pyrimidine-2,4-dione]
	~0.44	COc1ccc2nc(Nc3[nH]c(=O)n(Cc4ccccc4)c(=O)c3C)sc2c1 [Example 29, 3-Benzyl-6-(6-methoxy-benzothiazol-2-ylamino)-5-methyl-1H-pyrimidine-2,4-dione]
